Key:
[1] = system: primary human corneal endothelial cells (HCEnCs); experiment: Phase-contrast morphology of primary HCEnCs cultures treated with CHIR; type: cell-based
Description: Human corneas tissues (obtained after informed consent to the eye bank and the use was approved by the ethical committee) were preserved in media for tissue preservation as for example Eusol, OptiSOL or others and used within approximately 15 days from death; a list of detail for some corneas used and relative experiments is shown in Table 1. HCEnCs were isolated through Descemet's stripping and digestion with Collagenase A (Roche) for 1-16 h at 30-39° C. After 5-10 minutes in Trypsin or other proteolytic enzymes at 37° C., HCEnCs were pelleted at 1,200 rpm for 3 min and plated in FNC Coating mix treated wells.
(§1) HCEnCs were cultured between 31 and 39° C. in 4-10% CO2, changing the growth medium every other day. The growth medium can be OptiMEM-I, MEM, F12, Human Endothelial SFM, 2-10% HyClone fetal bovine serum (FBS), 2-10 ng/ml epidermal growth factor (EGF), 5-50 μg/mL ascorbic acid, 40-300 mg/L calcium chloride, 0.01-0.2% chondroitin sulphate, and penicillin/streptomycin. Upon confluency, HCEnCs were rinsed in DPBS and passaged at a ratio of 1:2 or 1:3 with Trypsin or other proteolytic enzymes for 10-30 min at 31-39° C. in 4-10% CO2. Sub-confluent cultures were harvested approximately 1 day after plating.
(§2) Before or whenever primary HCEnCs encountered a morphological variation, the GSK inhibitor CHIR99021 (also defined as 6-[[2-[[4-(2,4-Dichlorophenyl)-5-(5-methyl-1H-imidazol-2-yl)-2-pyrimidinyl]amino]ethyl]amino]-3-pyridinecarbonitrile) was prepared and added to the culture media at a concentration range of 0.1-10 μM. Multiple solvents and methods have been used to dissolve CHIR stock solution. Ultrasonic were applied for CHIR dilutions in sodium carboxymethyl cellulose (CMC-Na) in saline water and 20% Sulfobutylether-β-Cyclodextrin (SBE-β-CD), adjusted to pH 3-6, with 1 N acetic acid. CHIR can be also diluted in dimethyl sulfoxide (DMSO) at 70-100% (v/v), with a solution composed of 10% DMSO 40% PEG300 5% Tween-80 in saline water or composed of 10% DMSO and 20% SBE-β-CD in saline water. Once obtained a clear solution, the stock solution was aliquoted and stored at-20/−80° C. until use.

[2] = system: primary human corneal endothelial cells (HCEnCs); experiment: Immunofluorescence of ZO-1 and α-SMA markers in primary HCEnCs; type: cell-based
Description: as §1, §2
(§3) Immunofluorescence staining was performed on primary cultured HCEnCs after fixation in 3% PFA 15 min at room temperature (RT). Triton X-100 used at 1% for 10 min at RT allowed cell permeabilization and a solution of bovine serum albumin (BSA) 2%, FBS 2%, Triton X-100 at 0.01% in PBS was used for 30 min at 37° C. to block the non-specific binding sites. Primary and secondary antibodies were incubated for 1 h at 37° C. while nuclei were counterstained with DAPI at RT for 5 minutes before mounting the glass coverslips using amounting medium such as DAKO. Primary antibodies used herein are listed in Table 2 while secondary antibodies used are: Alexa Fluor 488 anti-rabbit, 1:2,000, and Alexa Fluor 568 anti-mouse, 1:1,000 (Thermo Fisher Scientific). Images were obtained with a confocal microscope (LSM900 Airyscan—Carl Zeiss).

[3] = system: primary human corneal endothelial cells (HCEnCs); experiment: Cell cycle analysis by FACS (propidium iodide) of sub-confluent HCEnCs; type: cell-based; conditions: sub-confluent HCEnCs P5-P6-P8, CHIR 0.1-9 μM vs untreated
Description: The cell cycle was studied by staining sub-confluent cultures of […] with Propidium Iodide (PI; Sigma-Aldrich). […] from cell culture were washed with DPBS and incubated for 1 h at 4° C. in the dark with 250 μL of a PBS solution composed by PI 50 μg/mL, Triton X-100 (Bio-Rad, USA) at 0.1%. Cells were then analysed using BD FACSCanto II (BD BIOSCIENCES; San Jose, CA USA). For each sample, 20,000 events were considered for the analysis to ensure statistical relevance and results were analysed with a ModFit 3.0 software.

[4] = system: primary human corneal endothelial cells (HCEnCs); experiment: HCEnCs count upon detachment at confluency for progressive passages; type: cell-based; conditions: CHIR 0.1-9 μM vs relative untreated control
Description: as §1, with “HCEnCs” left out

[5] = system: primary human corneal endothelial cells (HCEnCs); experiment: Immunofluorescence of ki67 in sub-confluent HCEnCs; type: cell-based
Description: as §3, with “HCEnCs” left out, “Airyscan-Carl” for “Airyscan—Carl”

[6] = system: corneal endothelial derived cell line, B4G12; conditions: B4G12 cell line (Wang et al., 2022); cited from earlier work
[7] = P1, CHIR at 0.1-9 μM, vs untreated (ctr)
[8] = P1, CHIR at a concentration >10 μM

SMILES: Cc1cnc(-c2cnc(NCCNc3ccc(C#N)cn3)nc2-c2ccc(Cl)cc2Cl)[nH]1 [CHIR, 6-[[2-[[4-(2,4-Dichlorophenyl)-5-(5-methyl-1H-imidazol-2-yl)-2-pyrimidinyl]amino]ethyl]amino]-3-pyridinecarbonitrile]
- reversion of elongated morphology ([1]; CHIR 0.1-9 μM added at a later passage, P6 confluence): able to reverse the elongated morphology
- reversion of cell phenotype / morphology ([1]; CHIR 0.1-9 μM applied to HCEnCs already elongated in culture (P3)): restoring a polygonal morphology
- reversion of elongated phenotype ([1]; CHIR 0.1-9 μM, progressive passages, at least up to P8): reversing the elongated phenotype
- HCEnCs morphology ([1]; P1, CHIR at 0.1-9 μM, vs untreated HCEnCs (ctr)): restored the polygonal morphology
- HCEnCs morphology ([1]; P1, CHIR at concentrations >10 μM, vs untreated cells): exacerbated elongated morphology
- HCEnCs morphology ([1]; P3, CHIR 0.1-9 μM vs untreated (ctr)): untreated cells (ctr) appeared more elongated than CHIR treated HCEnCs
- percentage of α-SMA expressing cells ([2]; P1, CHIR 0.1-9 μM, untreated approx. 40%): ~17%
- ZO-1 expression [2, 7]: restored sealed ZO-1 pattern of expression
- α-SMA expression [2, 7]: reduced levels of α-SMA
- ZO-1 expression [2, 8]: disappearance of ZO-1 expression
- endothelial to mesenchymal transition (EnMT) [2, 8]: accelerated the process of endothelial to mesenchymal transition
- α-SMA expression [2, 8]: highly expressed in every cell
- ZO-1 expression ([2]; P3, CHIR 0.1-9 μM): restores ZO-1 pattern of tight junctions
- α-SMA expression ([2]; P3, CHIR 0.1-9 μM): drastically reduces expression of α-SMA
- percentage of cells at G2/M [3]: reduced the percentage of cells at G2/M
- percentage of cells in G0/G1 phase of cell cycle [3]: enhanced the percentage of cells in G0/G1 phase
- number of HCEnCs at confluency for each passage [4]: constantly lower
- cell proliferation rate ([5]; primary HCEnCs, evaluated with different assays (FACS, count, ki67)): does not enhance cell proliferation rate
- ki67 protein expressing cells ([5]; sub-confluent HCEnCs P5, Strain 3, CHIR 0.1-9 μM vs untreated): equal
- ki67 protein expressing cells ([5]; sub-confluent HCEnCs P5, Strain 4, p<0.05, CHIR 0.1-9 μM vs untreated): significant reduction
- cell proliferation [6]: concomitant enhancement in cell proliferation
- mesenchymal conversion [6]: prevent mesenchymal conversion (but not to reverse it)

From patent US20260117173A1, “METHOD FOR MESENCHYMAL PHENOTYPE REVERSION IN PRIMARY HUMAN CORNEAL ENDOTHELIAL CELLS” (UNIVERSITÀ DEGLI STUDI DI MODENA E REGGIO EMILIA, priority 2022, published 2026)
